Data published in patent US20220324835A1 (Nurix Therapeutics, Inc., priority 2018, published 2022).

Experiments:
Type in all cases: cell-based
anergic human T-cells = experiment: Anergic T-cell activation assessed by IFNγ secretion (ionomycin-induced anergy); settings: anergic T-cells re-challenged with anti-CD3 and anti-CD28 for 24 hours, read-out: IFNγ Fold change from baseline
Summary of the method: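 Human primary T-cells (>95% CD3+) were activated with anti-CD3/anti-CD28 for 2 days, rested 3 days, then made anergic with ionomycin for 18-24 h. Compound (e.g. 10, 1.11, 0.37 μM) was added for 1 h before 24 h anti-CD3/CD28 re-challenge; IFNγ by ELISA or Luminex as fold over untreated anergic baseline, binned A ≤2.50, B 2.51-4.00, C >4.01.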

[1] = system: human T-cells with allogenic immature dendritic cells; experiment: Allogenic mixed lymphocyte reaction (MLR), T-cell proliferation; settings: 120 h, 5 days, baseline T-cells without Cbl-b inhibitor, read-out: Proliferation, fold change over baseline
Summary of the method: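 CFSE-labelled primary human T-cells, preincubated with Cbl-b inhibitor, stimulated by allogenic immature dendritic cells derived from monocytes with GM-CSF (30 ng/mL) and IL-4 (20 ng/mL) over 7 days. Proliferation by flow cytometry, expressed as fold over inhibitor-free baseline; >2-fold counted positive.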

T-cell [2] = experiment: CD25 cell surface staining on T-cells stimulated with anti-CD3 antibody alone (Biological Example 2); settings: primary human total T-cells, baseline = anti-CD3/anti-CD28 stimulated cells without inhibitor, read-out: CD25 staining, Anti-CD3 stimulation, fold change over baseline; for fold induction at 1 µM: 1 μM compound; for fold induction at 8 µM: 8 μM compound
T-cell [3] = experiment: IL-2 secretion from T-cells stimulated with anti-CD3 antibody alone (Biological Example 2); settings: primary human total T-cells, read-out: IL-2 secretion, Anti-CD3 stimulation, fold change over baseline; for fold induction at 1 µM: 1 μM compound; for fold induction at 8 µM: 8 μM compound

Compound | fold induction at 0.37 µM (anergic human T-cells) | fold induction at 1.11 µM (anergic human T-cells) | fold induction at 10 µM (anergic human T-cells) | fold induction at 3 µM [1] | fold induction at 10 µM [1] | fold induction at 1 µM (T-cell [2]) | fold induction at 8 µM (T-cell [2]) | fold induction at 1 µM (T-cell [3]) | fold induction at 8 µM (T-cell [3])
C[C@H](Cc1nncn1C)c1ccnc(NC(=O)c2cccc(C(F)(F)F)n2)c1 [Compound 302, (R)-N-(4-(1-(4-methyl-4H-1,2,4-triazol-3-yl)propan-2-yl)pyridin-2-yl)-6-(trifluoromethyl)picolinamide] | ≤ 2.5 | ≤ 2.5 | ≤ 2.5 | < 2 | < 2 | – | – | – | –
C[C@H](Cc1nncn1C)c1cccc(NC(=O)c2nc(C(F)(F)F)c[nH]2)c1 [Compound 326, (R)-N-(3-(1-(4-methyl-4H-1,2,4-triazol-3-yl)propan-2-yl)phenyl)-4-(trifluoromethyl)-1H-imidazole-2-carboxamide] | ≤ 2.5 | ≤ 2.5 | 2.51 to 4 | < 2 | < 2 | – | – | – | –
C[C@H](Sc1nncn1C)c1cccc(NC(=O)c2cc(C(=O)N3CC[C@H](O)C3)ccn2)c1 [Compound 140, 4-[[(3S)-3-hydroxypyrrolidin-1-yl]carbonyl]-N-[3-[(1S)-1-[(4-methyl-4H-1,2,4-triazol-3-yl)sulfanyl]ethyl]phenyl]pyridine-2-carboxamide] | ≤ 2.5 | ≤ 2.5 | 2.51 to 4 | < 2 | < 2 | – | – | – | –
Cc1cc2c(c(C3CC3)n1)CN(c1cccc([C@H](C)Cc3nncn3C)c1)C2=O [Compound 372, 4-cyclopropyl-6-methyl-2-{3-[(2R)-1-(4-methyl-4H-1,2,4-triazol-3-yl)propan-2-yl]phenyl}-1H,2H,3H-pyrrolo[3,4-c]pyridin-1-one] | ≤ 2.5 | ≤ 2.5 | 2.51 to 4 | < 2 | < 2 | 0.601 to 0.8 | 0.801 to 1 | 0.051 to 0.1 | 0.101 to 0.15
C[C@H](Cc1nncn1C)c1cccc(N2Cc3c(ccnc3C3CC3)C2=O)c1 [Compound 257, 4-cyclopropyl-2-[3-[(1R)-1-methyl-2-(4-methyl-1,2,4-triazol-3-yl)ethyl]phenyl]-3H-pyrrolo[3,4-c]pyridin-1-one] | ≤ 2.5 | ≤ 2.5 | 2.51 to 4 | < 2 | < 2 | – | – | – | –
C[C@H](Cc1nncn1C)c1cccc(NC(=O)c2cccc(CCO)n2)c1 [Compound 202, 6-(2-hydroxyethyl)-N-[3-[(2R)-1-(4-methyl-4H-1,2,4-triazol-3-yl)propan-2-yl]phenyl]pyridine-2-carboxamide] | ≤ 2.5 | ≤ 2.5 | 2.51 to 4 | < 2 | < 2 | – | – | – | –
CNCc1ccc(C(=O)Nc2cccc([C@H](C)Cc3nncn3C)c2)nc1C1CC1 [Compound 376, (R)-6-cyclopropyl-N-(3-(1-(4-methyl-4H-1,2,4-triazol-3-yl)propan-2-yl)phenyl)-5-((methylamino)methyl)picolinamide] | ≤ 2.5 | ≤ 2.5 | > 4.01 | < 2 | < 2 | 0.801 to 1 | > 1 | 0.101 to 0.15 | > 0.201
Cn1cnnc1[C@@H]1C[C@@H]1c1cccc(N2Cc3c(ccnc3C(F)(F)F)C2=O)c1 [Compound 369, 2-{3-[(1S,2R)-2-(4-methyl-4H-1,2,4-triazol-3-yl)cyclopropyl]phenyl}-4-(trifluoromethyl)-1H,2H,3H-pyrrolo[3,4-c]pyridin-1-one] | ≤ 2.5 | ≤ 2.5 | 2.51 to 4 | < 2 | < 2 | 0.601 to 0.8 | 0.801 to 1 | 0.051 to 0.1 | 0.101 to 0.15
Cn1cnnc1[C@@H]1C[C@@H]1c1cccc(N2Cc3c(cccc3C(F)(F)F)C2=O)c1 [Compound 282, 2-(3-((1S,2R)-2-(4-methyl-4H-1,2,4-triazol-3-yl)cyclopropyl)phenyl)-4-(trifluoromethyl)isoindolin-1-one] | ≤ 2.5 | ≤ 2.5 | ≤ 2.5 | < 2 | < 2 | – | – | – | –
